Assay results from patent publication US8993604B2, “Treatment and prevention of dengue virus infections” (Siga Technologies, Inc., priority 2009, dated 2015).
Like-named read-outs stand apart in the source and are kept apart here.

What was measured:
dengue [1] = conditions: mouse model; cited from earlier work
dengue [2] = conditions: cited from earlier work
[3] = test system: Dengue-2 (Strain New Guinea C); assay: Viral yield assay in Vero cells; format: cell-based; conditions: Dengue virus, read-out: Activity (anti-dengue 2 viral activity, EC50 class)
Experimental: Compounds that were active in the primary screen were tested for activity in viral yield assays. […] Vero cells in 12-well plates were infected with dengue-2 virus at a multiplicity of infection (MOI) of 0.1, treated with compound (or DMSO as a control), incubated at 37° C., harvested 48 hours post infection and titered on Vero cells as described above. The EC50 was calculated through ExcelFit. Activities against other serotypes of dengue virus were determined in a similar way.

[4] = Vero cells, MOI 0.1, harvested 48 hours post infection

In the case of NC(=O)c1ncn([C@@H]2O[C@H](CO)[C@@H](O)[C@H]2O)n1 [ribavirin], the protection against dengue (dengue [1]) is given as “did not show protection”, the adverse effects induced (dengue [2]; animal models of refs. 14, 16, model not specified) is given as “induced anemia and thrombocytosis” and the protection against dengue (dengue [2]; rhesus monkey model) is given as “did not show protection”.

In the case of Cc1c(C(=O)Nc2ccccc2-c2nc3ccccc3s2)cccc1[N+](=O)[O-] [Compound 114, N-(2-Benzothiazol-2-yl-phenyl)-2-methyl-3-nitro-benzamide], the EC50 [3, 4] is reported as > 25 µM.

With COc1ccc(C(=O)Nc2ccc(-c3nc4ccccc4s3)c(O)c2)cc1 [Compound 1, N-(4-Benzothiazol-2-yl-3-hydroxy-phenyl)-4-methoxy-benzamide] the EC50 [3, 4] was < 1 µM.

In the case of Cc1ccc(C(=O)Nc2ccccc2-c2nc3ccccc3s2)cc1[N+](=O)[O-] [Compound 107, N-(2-Benzothiazol-2-yl-phenyl)-4-methyl-3-nitro-benzamide], the EC50 [3, 4] is reported as > 25 µM.

With COc1ccccc1C(=O)Nc1ccccc1-c1nc2ccccc2s1 [Compound 112, N-(2-Benzothiazol-2-yl-phenyl)-2-methoxy-benzamide] the EC50 [3, 4] was > 25 µM.

For O=C(Nc1ccc(-c2nc3ccccc3s2)cc1)c1c(F)cccc1F [Compound 79, N-(4-Benzothiazol-2-yl-phenyl)-2,6-difluoro-benzamide], the EC50 [3, 4] was > 25 µM.

In the case of Cc1ccc(C(=O)Nc2cccc(-c3nc4ccccc4s3)c2)cc1 [Compound 89, N-(3-Benzothiazol-2-yl-phenyl)-4-methyl-benzamide], the EC50 [3, 4] is reported as > 25 µM.

With N#Cc1ccc(C(=O)Nc2ccc(Cl)c(-c3nc4ccccc4s3)c2)c(F)c1 [Compound 82, N-(3-Benzothiazol-2-yl-4-chloro-phenyl)-4-cyano-2-fluoro-benzamide] the EC50 [3, 4] was > 25 µM.

For O=C(Nc1ccc(O)c(-c2nc3ccccc3s2)c1)c1cccc(F)c1 [Compound 62, N-(3-Benzothiazol-2-yl-hydroxy-phenyl)-3-fluoro-benzamide], the EC50 [3, 4] was > 25 µM.

In the case of COc1ccc(C(=O)Nc2ccc(-c3nc4ccccc4s3)c(Cl)c2)cc1OC [Compound 5, N-(4-Benzothiazol-2-yl-3-chloro-phenyl)-3,4-dimethoxy-benzamide], the EC50 [3, 4] is reported as < 1 µM.

For O=C(Nc1ccc(O)c(-c2nc3ccccc3s2)c1)c1ccc2c(c1)OCCO2 [Compound 72, 2,3-Dihydro-benzo[1,4]dioxine-6-carboxylic acid (3-benzothiazol-2-yl-4-hydroxy-phenyl)-amide], the EC50 [3, 4] was > 25 µM.

With Cc1ccc(C(=O)Nc2ccccc2-c2nc3ccccc3s2)cc1C [Compound 99, N-(2-Benzothiazol-2-yl-phenyl)-3,4-dimethyl-benzamide] the EC50 [3, 4] was > 25 µM.

In the case of Cc1ccc2sc(-c3ccc(NC(=O)c4ccc(Cl)cc4)cc3)nc2c1 [Compound 42, 4-Chloro-N-[4-(5-methyl-benzothiazol-2-yl)-phenyl]-benzamide], the EC50 [3, 4] is reported as > 25 µM.

For CCC(C)Oc1ccc(C(=O)Nc2ccccc2-c2nc3ccccc3s2)cc1 (stereo not shown) [Compound 101, N-(2-Benzothiazol-2-yl-phenyl)-4-sec-butoxy-benzamide], the EC50 [3, 4] was > 25 µM.

In the case of COc1ccc(C(=O)Nc2ccc(-c3nc4ccccc4s3)c(Cl)c2)cc1 [Compound 6, N-(4-Benzothiazol-2-yl-3-chloro-phenyl)-4-methoxy-benzamide], the EC50 [3, 4] is reported as < 1 µM.

For Cc1ccc(C(=O)Nc2cccc(-c3nc4ccccc4s3)c2)c(Cl)c1 [Compound 33, N-(3-Benzothiazol-2-yl-phenyl)-2-chloro-4-methyl-benzamide], the EC50 [3, 4] was 10 to 25 µM.

In the case of COc1ccccc1C(=O)Nc1cc(-c2nc3ccccc3s2)ccc1C [Compound 52, N-(5-Benzothiazol-2-yl-2-methyl-phenyl)-2-methoxy-benzamide], the EC50 [3, 4] is reported as > 25 µM.

With Cc1ccc(-c2nc3ccccc3s2)cc1NC(=O)c1cccc(I)c1 [Compound 43, N-(5-Benzothiazol-2-yl-2-methyl-phenyl)-3-iodo-benzamide] the EC50 [3, 4] was > 25 µM.

For COC(=O)c1cc(C(=O)Nc2ccc(-c3nc4ccc(C)cc4s3)cc2)cc([N+](=O)O)c1 [Compound 81, N-[4-(6-Methyl-benzothiazol-2-yl)-phenyl]-5-nitro-isophthalamic acid methyl ester], the EC50 [3, 4] was > 25 µM.

Work on O=C(Nc1cccc(-c2nc3ccccc3s2)c1)c1ccc(S(=O)(=O)N2CCCC2)cc1 [Compound 20, N-(3-Benzothiazol-2-yl-phenyl)-4-(pyrrolidine-1-sulfonyl)-benzamide] yielded an EC50 [3, 4] of 10 to 25 µM.

In the case of O=C(Nc1ccc(-c2nc3ccccc3s2)c(Cl)c1)c1ccccc1[N+](=O)[O-] [Compound 124, N-(4-Benzothiazol-2-yl-3-chloro-phenyl)-2-nitro-benzamide], the EC50 [3, 4] is reported as > 25 µM.

With COc1cc(OC)cc(C(=O)Nc2ccc(Cl)c(-c3nc4ccccc4s3)c2)c1 [Compound 86, N-(3-Benzothiazol-2-yl-4-chloro-phenyl)-3,5-dimethoxy-benzamide] the EC50 [3, 4] was > 25 µM.

For O=C(Nc1cccc(-c2nc3ccccc3s2)c1)c1ccccc1I [Compound 83, N-(3-Benzothiazol-2-yl-phenyl)-2-iodo-benzamide], the EC50 [3, 4] was > 25 µM.

For Cc1c(C(=O)Nc2ccc(-c3nc4ccccc4s3)c(O)c2)cccc1[N+](=O)[O-] [Compound 78, N-(4-Benzothiazol-2-yl-3-hydroxy-phenyl)-2-methyl-3-nitro-benzamide], the EC50 [3, 4] was > 25 µM.

For O=C(Nc1ccccc1-c1nc2ccccc2s1)c1ccccc1[N+](=O)[O-] [Compound 34, N-(2-Benzothiazol-2-yl-phenyl)-2-nitro-benzamide], the EC50 [3, 4] was 10 to 25 µM.

For O=C(Nc1ccc(-c2nc3ccccc3s2)c(O)c1)c1ccccc1F [Compound 54, N-(4-Benzothiazol-2-yl-3-hydroxy-phenyl)-2-fluoro-benzamide], the EC50 [3, 4] was > 25 µM.

With Cc1cc(C(=O)Nc2ccccc2-c2nc3ccccc3s2)ccc1[N+](=O)[O-] [Compound 115, N-(2-Benzothiazol-2-yl-phenyl)-3-methyl-4-nitro-benzamide] the EC50 [3, 4] was > 25 µM.

In the case of Cc1ccc2sc(-c3ccc(NC(=O)c4ccccc4Cl)cc3)nc2c1 [Compound 49, 2-Chloro-N-[4-(5-methyl-benzothiazol-2-yl)-phenyl]-benzamide], the EC50 ([3]; Vero, 48 h) is reported as > 25 µM.

For O=C(Nc1ccccc1-c1nc2ccccc2s1)c1ccccc1Br [Compound 116, N-(2-Benzothiazol-2-yl-phenyl)-2-bromo-benzamide], the EC50 [3, 4] was > 25 µM.

For COc1cccc(OC)c1C(=O)Nc1ccc(Cl)c(-c2nc3ccccc3s2)c1 [Compound 118, N-(3-Benzothiazol-2-yl-4-chloro-phenyl)-2,6-dimethoxy-benzamide], the EC50 [3, 4] was > 25 µM.

In the case of O=C(Nc1ccc(O)c(-c2nc3ccccc3s2)c1)c1ccc([N+](=O)[O-])cc1 [Compound 53, N-(3-Benzothiazol-2-yl-4-hydroxy-phenyl)-4-nitro-benzamide], the EC50 [3, 4] is reported as > 25 µM.

For Cc1ccc(C(=O)Nc2ccc(-c3nc4ccc(C)cc4s3)cc2)c(Cl)c1 [Compound 87, 2-Chloro-4-methyl-N-[4-(6-methyl-benzothiazol-2-yl)-phenyl]-benzamide], the EC50 [3, 4] was > 25 µM.

For COc1c(Cl)cc(Cl)cc1C(=O)Nc1ccccc1-c1nc2ccccc2s1 [Compound 100, N-(2-Benzothiazol-2-yl-phenyl)-3,5-dichloro-2-methoxy-benzamide], the EC50 [3, 4] was > 25 µM.

With Cc1cccc(C(=O)Nc2cccc(-c3nc4ccccc4s3)c2)c1 [Compound 12, N-(3-Benzothiazol-2-yl-phenyl)-3-methyl-benzamide] the EC50 [3, 4] was 1 to 10 µM.

For COc1ccccc1C(=O)Nc1ccc(-c2nc3ccccc3s2)c(Cl)c1 [Compound 11, N-(4-Benzothiazol-2-yl-3-chloro-phenyl)-2-methoxy-benzamide], the EC50 [3, 4] was < 1 µM.

With O=C(Nc1cccc(-c2nc3ccccc3s2)c1)c1ccc(F)cc1 [Compound 90, N-(3-Benzothiazol-2-yl-phenyl)-4-fluoro-benzamide] the EC50 [3, 4] was > 25 µM.

With Cc1ccc2nc(-c3ccc(NC(=O)c4ccc(N(C)C)cc4)cc3)sc2c1 [Compound 7, 4-Dimethylamino-N-[4-(6-methyl-benzothiazol-2-yl)-phenyl]-benzamide] the EC50 [3, 4] was < 1 µM.

For CCOC(=O)N1CCN(S(=O)(=O)c2ccc(C(=O)Nc3cccc(-c4nc5ccccc5s4)c3)cc2)CC1 [Compound 46, 4-[4-(3-Benzothiazol-2-yl-phenylcarbamoyl)-benzenesulfonyl]-piperazine-1-carboxylic acid ethyl ester], the EC50 [3, 4] was > 25 µM.

In the case of Cc1cc(C(=O)Nc2ccc(-c3nc4ccccc4s3)cc2)ccc1[N+](=O)[O-] [Compound 85, N-(4-Benzothiazol-2-yl-phenyl)-3-methyl-4-nitro-benzamide], the EC50 [3, 4] is reported as > 25 µM.

In the case of Cc1ccccc1C(=O)Nc1ccc(-c2nc3ccccc3s2)cc1 [Compound 26, N-(4-Benzothiazol-2-yl-phenyl)-2-methyl-benzamide], the EC50 [3, 4] is reported as 10 to 25 µM.

For O=C(Nc1ccccc1-c1nc2ccccc2s1)c1ccc(-c2ccccc2)cc1 [Compound 105, Biphenyl-4-carboxylic acid (2-benzothiazol-2-yl-phenyl)-amide], the EC50 [3, 4] was > 25 µM.
